The record followed here is ChEMBL document CHEMBL5584263, “Novel inhibitor N-cyclopropyl-4-((4-((4-(trifluoromethyl)phenyl)sulfonyl)piperazin-1-yl)methyl)benzamide attenuates RANKL-mediated osteoclast differentiation in vitro” (Bioorg Med Chem Lett, 2024).

Data set [1] concerns BMMC. In words: Inhibition of osteoclastogenesis in mouse BMMC at 1 uM by TRAP staining based assay. Type of data set: functional.
Data set [2] concerns BMMC. In words: Inhibition of osteoclastogenesis in mouse BMMC at 0.5 uM by TRAP staining based assay. It counts as functional.
For data set [3], the system named is BMMC. Put plainly: Inhibition of osteoclastogenesis in mouse BMMC at 2 uM by TRAP staining based assay. Type of data set: functional.
A short description of data set [4]: Partition coefficient, logP of compound. Type of data set: physicochemical. As to conditions: octanol/water.
The subject of data set [5] is BMMC. In words: Inhibition of osteoclastogenesis in mouse BMMC by TRAP staining based assay. Type of data set: functional, cell-based.
Data set [6] relates to BMMC. In words: Inhibition of osteoclast differentiation in mouse BMMCs assessed as reduction in […] mRNA expression at 1.25 uM incubated for 3 days by qRT-PCR analysis. Type of data set: functional, cell-based. As to conditions: time 3.0 day. (In general: Real-time PCR tracks product formation cycle by cycle.)
Data set [7] can be described thus: Effect on mouse BMMCs viability at below 10 uM incubated for 48 hrs by MTT assay. It counts as toxicity, cell-based. The conditions noted are these: bmmc. For orientation: Tetrazolium dyes change colour on reduction, which living cells bring about.
For data set [8], the system named is BMMC. Put plainly: Inhibition of osteoclast differentiation in mouse BMMCs assessed as reduction in ACP5 mRNA expression at 1.25 uM incubated for 3 days by qRT-PCR analysis. It counts as functional, cell-based. As to conditions: time 3.0 day.
Data set [9] has as its system BMMC. Put plainly: Inhibition RANKL-induced F-actin ring formation in mouse BMMC at 0.625 to 2.5 uM incubated for 4 days by immunofluorescence assay. It counts as functional, cell-based. As to conditions: dose 0.625-2.5 µM, time 4.0 day.
In data set [10] the test system is BMMC. In words: Inhibition of osteoclast differentiation in mouse BMMCs assessed as reduction in Dc-stamp mRNA expression at 1.25 uM incubated for 3 days by qRT-PCR analysis. As to conditions: time 3.0 day. Type of data set: functional, cell-based.
The subject of data set [11] is BMMC. Put plainly: Inhibition of osteoclast differentiation in mouse BMMCs assessed as reduction in Cathepsin K protein expression at 1.25 uM incubated for 3 days by immunoblotting analysis. As to conditions: time 3.0 day. Type of data set: functional, cell-based. A general note: Immunoblotting shows a protein as a band on a membrane.
Data set [12] deals with BMMC. In words: Inhibition of osteoclast differentiation in mouse BMMCs assessed as reduction in c-fos protein expression at 1.25 uM incubated for 3 days by immunoblotting analysis. It counts as functional, cell-based. As to conditions: time 3.0 day.
The test system of data set [13] is BMMC. In words: Inhibition of osteoclast differentiation in mouse BMMCs assessed as reduction in NFATc1 protein expression at 1.25 uM incubated for 3 days by immunoblotting analysis. Type of data set: functional, cell-based. As to conditions: time 3.0 day.
Another data set deals with Calvarial osteoblast. Put plainly: Effect on cell viability in osteoblast cells (unknown origin) upto 4 uM incubated for 48 hrs by MTT assay. Type of data set: toxicity, cell-based.
The test system of data set [14] is BMMC. In words: Inhibition of RANKL mediated […] differentiation in mouse BMMC incubated for 4 days by TRAP staining based assay. Type of data set: functional, cell-based. As to conditions: dose 0.25-2 µM, time 4.0 day.
Data set [15] has as its system BMMC. Put plainly: Inhibition of RANKL mediated […] differentiation in mouse BMMC at 0.25 to 2 uM incubated for 4 days by TRAP staining based assay. Type of data set: functional, cell-based. As to conditions: dose 0.25-2 µM, time 4.0 day.
In data set [16] the test system is BMMC. In words: Inhibition of osteoclast differentiation in mouse BMMCs assessed as reduction in Cathepsin K mRNA expression at 1.25 uM incubated for 3 days by qRT-PCR analysis. Type of data set: functional, cell-based. As to conditions: time 3.0 day.
For data set [17], the system named is BMMC. Put plainly: Inhibition RANKL-induced bone resorption in mouse BMMC at 0.625 to 2.5 uM incubated for 4 days by immunofluorescence assay. Type of data set: functional, cell-based. As to conditions: dose 0.625-2.5 µM, time 4.0 day.
In data set [18] the test system is BMMC. In words: Inhibition of osteoclastogenesis in mouse BMMC assessed as reduction in fusion of mononuclear osteoclast cells to form large multinucleated osteoclast cells at 0.25 to 2 uM. As to conditions: dose 0.25-2 µM. Type of data set: functional, cell-based.
Data set [19] has as its system BMMC. In words: Inhibition of osteoclast differentiation in mouse BMMCs assessed as reduction in Nfatc1 mRNA expression at 1.25 uM incubated for 3 days by qRT-PCR analysis. Type of data set: functional, cell-based. As to conditions: time 3.0 day.
The next data set concerns Mus musculus. Put plainly: Inhibition of osteoclast differentiation in ovariectomized osteoporosis mouse model at 10 mg/kg, ip administered for 4 weeks. It counts as functional, organism-based.
In data set [20] the test system is BMMC. Put plainly: Inhibition of osteoclast differentiation in mouse BMMCs assessed as reduction in Mmp9 mRNA expression at 1.25 uM incubated for 3 days by qRT-PCR analysis. As to conditions: time 3.0 day. It counts as functional, cell-based.

The structures appear in SMILES notation. pIC50: −log10 of the molar value. The source made the active and inactive calls. The rule behind the calls is not given here.

In general, inhibition refers to the drop in the measured response relative to a control, in per cent. For orientation: logP means the decadic logarithm of the partition coefficient of the neutral form, usually between octanol and water. Low readings indicate lower lipophilicity, high ones higher lipophilicity. Regarding `COc1cccc(S(=O)(=O)N2CCN(Cc3ccc(C(=O)NC4CC4)cc3)CC2)c1`, the inhibition at 1 µM in the data set with BMMC [1] was -20.9%. Besides, the inhibition at 0.5 µM with BMMC [2] was -22.8%. For the same compound, the inhibition at 2 µM in the data set on BMMC [3] is -5.21%. The compound further gave a logP in [4] of 2.7.

One may read the pIC50 as the negative decadic logarithm of the IC50, by convention in mol/L. With `O=C(NC1CC1)c1ccc(CN2CCN(S(=O)(=O)c3cccc(Cl)c3)CC2)cc1`, in the data set on BMMC [1], the inhibition at 1 µM is 25.2%. Besides, the inhibition at 0.5 µM in the data set on BMMC [2] was -49.2%. The inhibition at 2 µM with BMMC [3] came out at 71.7%. This compound also showed a logP in [4] of 3.3. The same compound showed a pIC50 in the data set on BMMC [5] of 5.52.

For `CCCCCCCCS(=O)(=O)N1CCN(Cc2ccc(C(=O)NC3CC3)cc2)CC1`, the inhibition at 1 µM in the data set with BMMC [1] was found to be 33.2%. Besides, the inhibition at 0.5 µM in the data set on BMMC [2] turned out to be 23.9%. Further, the inhibition at 2 µM in the data set with BMMC [3] came to 84%. Also, in [4], the logP worked out at 5.7. Besides, the pIC50 with BMMC [5] was 5.94.

As for `O=C(NC1CC1)c1ccc(CN2CCN(S(=O)(=O)c3ccc([N+](=O)[O-])cc3)CC2)cc1`, the inhibition at 1 µM in the data set on BMMC [1] stood at 25.5%. Moreover, the inhibition at 0.5 µM with BMMC [2] was found to be 48.9%. The inhibition at 2 µM with BMMC [3] turned out to be 46.7%. In addition, the logP in [4] was 2.6. This compound also showed a pIC50 in the data set on BMMC [5] of 5.77.

`COc1ccc(S(=O)(=O)N2CCN(Cc3ccc(C(=O)NC4CC4)cc3)CC2)cc1`: in the data set with BMMC [1], the inhibition at 1 µM is -13.8%. For the same compound, the inhibition at 0.5 µM with BMMC [2] is -9.9%. Further, the inhibition at 2 µM in the data set on BMMC [3] was determined as 10.6%. In addition, the logP in data set [4] was found to be 2.6. Also, in the data set on BMMC [5], the pIC50 is 3.66.

For the compound `CC(C)(C)c1ccc(S(=O)(=O)N2CCN(Cc3ccc(C(=O)NC4CC4)cc3)CC2)cc1`, the inhibition at 1 µM with BMMC [1] is 74.1%. For the same compound, in the data set with BMMC [2], the inhibition at 0.5 µM is 23.6%. Further, the inhibition at 2 µM in the data set with BMMC [3] came out at 100%. Further, the logP in [4] was determined as 4.1. The same compound gave a pIC50 with BMMC [5] of 6.26.

Take `O=C(NC1CC1)c1ccc(CN2CCN(S(=O)(=O)c3ccc(C(F)(F)F)cc3)CC2)cc1`: the inhibition at 1 µM with BMMC [1] was determined as 72%. For the same compound, the inhibition result in the data set on BMMC [6], in the data set with BMMC [8], in the data set with BMMC [9], in the data set with BMMC [10], in the data set with BMMC [11] and in the data set with BMMC [12] was “Active” throughout. Further, the inhibition result with BMMC [13], with BMMC [15], with BMMC [16], in the data set with BMMC [17], in the data set on BMMC [18] and in the data set with BMMC [19] was “Active” in each case. Further, the inhibition entry with BMMC [20] was “Active”. Moreover, the Activity entry (in data set [7]; with Calvarial osteoblast) was “Non-Toxic” in each case. The inhibition entry with BMMC [14] was “Dose-Dependent Effect”. In addition, the inhibition at 0.5 µM in the data set with BMMC [2] is 17.7%. The inhibition at 2 µM in the data set on BMMC [3] turned out to be 96.8%. The inhibition entry in the data set on Mus musculus is “inactive”. Further, the logP in [4] came out at 3.5. The compound also gave a pIC50 in the data set with BMMC [5] of 6.19.

Take `CC(=O)c1ccc(S(=O)(=O)N2CCN(Cc3ccc(C(=O)NC4CC4)cc3)CC2)cc1`: the inhibition at 1 µM with BMMC [1] came to 16.9%. The inhibition at 0.5 µM in the data set with BMMC [2] was determined as 17.6%. In addition, the inhibition at 2 µM in the data set on BMMC [3] worked out at 14.7%. Further, in data set [4], the logP was determined as 2.3. This compound showed a pIC50 in the data set with BMMC [5] of 5.14.

As for `O=C(NC1CC1)c1ccc(CN2CCN(S(=O)(=O)c3ccc(-c4ccccc4)cc3)CC2)cc1`, the inhibition at 1 µM with BMMC [1] stood at 64.6%. For the same compound, the inhibition at 0.5 µM in the data set on BMMC [2] amounted to 9.56%. In addition, the inhibition at 2 µM with BMMC [3] came out at 100%. The compound further registered a logP in data set [4] of 4.1. In the data set on BMMC [5], this compound had a pIC50 of 6.12.
